The text below walks through data of patent US20140227318A1, “SLEEP QUALITY IMPROVING AGENT” (LION CORPORATION, priority 2011, published 2014).

One assay concerns male C57BL/6 mice. The assay can be described thus: Measurement of amount of activity of mice (sleep inducing effect). It counts as in vivo, mouse. The settings on record: oral; for CUMULATIVE AMOUNT OF ACTIVITY 6 HOURS AFTER ADMINISTRATION: n=8; for sleep inducing effect: conclusion from amount of activity. On the procedure:
To check the sleep inducing effect of the S-adenosylmethionine-containing yeast, the following test was performed using respective samples shown in TABLE 1.
The S-adenosylmethionine-containing yeast (the sample in Example 1) used was “AMee (trade name)” manufactured by IWATA CHEMICAL CO., LTD. “Nissin Super Camellia dry yeast (trade name)” manufactured by Nisshin Foods Inc. was used as a yeast containing no adenosylmethionine (the sample in Comparative Example 2). S-adenosylmethionine disulfate tosylate (the sample in Comparative Example 3) used was S-adenosylmethionine disulfate tosylate manufactured by CHEMaster. The sample in Comparative Example 2 and the sample in Comparative Example 3 were mixed and used as a mixture of the yeast containing no S-adenosylmethionine and S-adenosylmethionine disulfate tosylate (the sample in Comparative Example 4). S-adenosylmethionine chloride used in Comparative Example 5 (the sample in Comparative Example 5) was a reagent from
SIGMA. In each of Example 1 and Comparative Examples 2, 3, 4, and 5, a suspension of the sample in a 0.5% by mass aqueous methyl cellulose solution was prepared and used as a sample solution for an experiment. A 0.5% by mass aqueous methyl cellulose solution (the sample in Comparative Example 1) was used as a control solution.
When a sample has the function of inducing sleep, the amount of activity always decreases after administration of the sample. Therefore, the sleep inducing effect of each sample was evaluated by determining whether or not the administration of the sample solution to a mouse caused a reduction in the amount of activity.
8-Week old or 9-week old male C57BL/6 mice were purchased from Japan SLC, Inc. and acclimatized for 3 to 6 days. The amount of activity during acclimatization was used to divide the mice into administration groups. Immediately before the onset of the dark period, a sample solution or the control solution was orally administered in an amount of 10 mL/kg per body weight, and the amount of activity was measured for 24 hours after administration. Each administration group included 8 mice (n=8).
The amount of activity was measured under the following conditions. The mice were raised in individual cages, and an infrared camera was disposed above each cage. The imaging range of the infrared camera was divided into 64 sections, and the number of occurrences that the mouse crossed a section was measured. The number of occurrences was collected every 30 minutes.
In FIG. 2, “**” represents that a significant difference was found at p<0.01.

For assay [1] the following is noted: intravenous injection or intramuscular injection; cited from earlier work.

In the case of `C[S+](CC[C@H](N)C(=O)O)C[C@H]1O[C@@H](n2cnc3c(N)ncnc32)[C@H](O)[C@@H]1O.[Cl-]` (stereo partly drawn) [Comparative Example 5, S-adenosylmethionine chloride], the “CUMULATIVE AMOUNT OF ACTIVITY 6 HOURS AFTER ADMINISTRATION” value with male C57BL/6 mice (150 mg/kg (137 mg/kg in terms of S-adenosylmethionine)) was 7068 NUMBER OF OCCURRENCES/6 HOURS. The sleep inducing effect result in the assay on male C57BL/6 mice is “no sleep inducing effect”.

As to “S-adenosylmethionine disulfate tosylate [Comparative Example 3]”, in assay [1], the “influence on sleep onset latency” value is “no influence” and the “length of NREM sleep (stage 4)” value is listed as “extended”. For the same compound, in the assay with male C57BL/6 mice (293 mg/kg (150 mg/kg in terms of S-adenosylmethionine)), the “CUMULATIVE AMOUNT OF ACTIVITY 6 HOURS AFTER ADMINISTRATION” value is listed as 8618 NUMBER OF OCCURRENCES/6 HOURS. For the same compound, the sleep inducing effect entry with male C57BL/6 mice is “no sleep inducing effect”.
